For NC(=O)CCCOc1cccc(-c2n[nH]c3c2Cc2ccccc2-3)c1, the melting point was 200 to 202 °C.
Compound O=C(O)c1nc(-c2ccccc2Cl)nc2ccccc12 has a melting point of 171 °C.
Work on CCC1(CC)Cc2c(C(=O)O)ccc(OC)c2O1 yielded a melting point of 152 to 154 °C.
With Cc1cc(=O)c(C(=O)Nc2cccc(C)c2C)c(C)o1 the melting point was 174 to 176 °C.
Compound Cn1c(-c2ccccc2F)c2ccsc2nc1=O has a melting point of 191 to 192 °C.
CCCC(C)(C)c1nc(CC(=O)O)c(C)o1 gave a melting point of 97 to 98 °C.
In the case of Cc1nc(-c2ccc(-c3cscn3)cc2)c(-c2ccc(S(C)(=O)=O)c(F)c2)o1, the melting point is reported as 196 to 197 °C.
CCCCCCS(=O)c1c(O)cc(C)oc1=O (centres undefined) gave a melting point of 59 to 60 °C.
Compound Cc1cn(C)c(C(=O)NS(=O)(=O)c2ccccc2Cl)n1 has a melting point of 230 to 231 °C.
For O=C(O)CCc1ccc(OCc2ccc(Oc3ccccc3)cc2)c(F)c1, the melting point was 123 to 125 °C.
For Cc1nc(C)c(Cl)c(NCc2nccc(SCCCSCCSc3ncccn3)c2C)n1, the melting point was 112 to 115 °C.
Compound COc1ccc(C(O)CNC(=O)C(N)=O)cc1OC1CCCC1 (centres undefined) has a melting point of 180 to 181 °C.
Work on CCCCCCCCOC(=O)C1=CC(=O)C(C(=O)OCCCCCCCC)=C(S(=O)(=O)c2ccc(C)cc2)C1=O yielded a melting point of 75 to 77 °C.
CCCN(CCC)c1c([N+](=O)[O-])cc(C2OCCS2)cc1[N+](=O)[O-] (centres undefined) showed a melting point of 111 to 112 °C.
Compound NCC1Cc2cccc(-c3ccsc3)c2O1 (centres undefined) has a melting point greater than 200 °C.
Compound NS(=O)(=O)C(F)(F)c1nnc(C(F)(F)S(N)(=O)=O)o1 has a melting point of 171 to 172 °C.
CC/C=C\C=C/CCCCCCCCCC=O showed a melting point of 7 to 8 °C.
CCOCN1C(C)=C(C(=O)OC)[C@H](c2cccc([N+](=O)[O-])c2)C(C(=O)OCOC(=O)C(C)(C)C)=C1C showed a melting point of 81 to 82 °C.
In the case of N#CC(C#N)=C(NCCN1CCCCC1)N1CCC(N2CCCCC2)CC1, the melting point is reported as 198 to 200 °C.
O=C(O)c1nn(-c2ccc(Cl)cc2Cl)c2c1CCc1sc(Br)cc1-2 showed a melting point of 235 to 237 °C.
CC(C)Oc1ccc(CCCOc2cc(CCC(=O)O)n(C)n2)c(Oc2ncc(Cl)cc2Cl)c1 showed a melting point of 77 to 78 °C.
For CCOC(=O)N1CCC(n2cnc3ccc(-c4nnc(C)o4)cc32)CC1, the melting point was 179 to 180 °C.
COc1cc(C(F)(F)F)nn1-c1ccc(NC(=O)c2snnc2C)cc1 gave a melting point of 159 to 160 °C.
Work on Clc1cc(N2CCN(CCOc3ccc(Br)cc3)CC2)c(Cl)nn1 yielded a melting point of 124 to 126 °C.
In the case of CCOc1nccc(Cl)c1NC(=O)OC(C)(C)C, the melting point is reported as 73 to 74 °C.
With CCOC(=O)c1cnc2ccc(OCC)nc2c1O the melting point was 275 to 278 °C.
Work on O=C1c2ccccc2S(=O)(=O)c2cc(C3=NCCN3)ccc21 yielded a melting point of 241 to 242 °C.
COc1ccc(Oc2c(C)cc(CO)cc2C)cc1C(C)C showed a melting point of 78 to 80 °C.
Compound CCN1C(=O)N(c2ccc(C#N)c(C(F)(F)F)c2)C(=O)C1(CO)CO has a melting point of 155 to 156 °C.
CCc1cnc(N=Cc2cnc([N+](=O)[O-])n2C)n1CCO showed a melting point of 185 to 187 °C.
Work on O=C1NCN2c3ccc(Cl)cc3[C@H]3CCN4CCC[C@H]1[C@H]4[C@H]32 (racemic) yielded a melting point greater than 250 °C.
With COc1ccc(C2CC[N+]([O-])(CCC3CCOc4ccccc43)CC2)cc1OC (centres undefined) the melting point was 97 °C.
N#Cc1ccc(N2CCN(Cc3cnc4c(c3)NC(=O)[C@@H]3CCCN43)CC2)cc1 showed a melting point of 252 °C.
For O=C(NCc1cccs1)n1cc(F)c(=O)[nH]c1=O, the melting point was 131 to 132 °C.
Work on CCCCn1c(=O)n2cnnc2c2[nH]c(-c3cc(S(=O)(=O)N4CC(CN(C)C)C4)ccc3OCCC)nc21 yielded a melting point of 198 °C.
In the case of Cc1cc(NNC(=O)Nc2ccc(N(CCCl)CCCl)cc2)c2ccccc2n1, the melting point is reported as 235 to 236 °C.
CCOC(=O)C(c1c[nH]c2cccc(C(=O)OC)c12)C(C)[N+](=O)[O-] (centres undefined) gave a melting point of 106 to 110 °C.
For CCOC(=O)c1cn2cccc(C(=O)OCC)c2n1, the melting point was 97 °C.
For CCOC(=O)C(C#N)C1(C#N)C(=O)N(Cc2ccc(F)cc2)c2c(C)cccc21 (centres undefined), the melting point was 130 to 132 °C.
In the case of CC1(C)CCc2c(N3CCOCC3)nc3sc4c(NCc5ccco5)ncnc4c3c2C1, the melting point is reported as 210 to 211 °C.
CCCCCCCCCCOc1ccc(OCCCC#CCOC)cc1 showed a melting point of 33 to 34 °C.
COc1ncc(C(F)(F)F)cc1-c1cccn2nc(Nc3ccc(C4CCN(C(=O)OC(C)(C)C)CC4)cc3)nc12 gave a melting point of 142 to 144 °C.
Work on COCC(C)N1Cc2c(NC(=O)c3ccc(F)c(C(F)(F)F)c3)cccc2C1=O (centres undefined) yielded a melting point of 151 to 152 °C.
In the case of CCOC(=O)c1cn(C)c2nc3cc(N4CCNC(c5ccco5)C4)c(F)cc3cc2c1=O (racemic), the melting point is reported as 198 to 200 °C.
CCOC(=O)C(=Cc1cccn2cc(C(C)C)nc12)N=[N+]=[N-] showed a melting point of 66 to 68 °C.
Work on OCC1OC(n2c(Cl)nc3cc(Cl)c(Br)cc32)C(O)C1O (centres undefined) yielded a melting point of 158 to 159 °C.
Compound CC1CCC(Nc2nccc(Oc3ccc(NC(=O)c4cc(F)cc(N5CCCCC5)c4)c4ccccc34)n2)CC1 (centres undefined) has a melting point of 101 to 102 °C.
Compound Cc1nc2sc3cc(F)ccc3n2c1CO has a melting point of 230 to 235 °C.
For Cc1c(C)c2c(c(C)c1NC=O)CC(C)(CBr)O2 (centres undefined), the melting point was 157 to 158 °C.
Work on CCC(C)CNC(=O)c1ccc2cccc(Cc3ccc(C(=O)OC)cc3OC)c2c1 (centres undefined) yielded a melting point of 134 to 135 °C.
COC(=O)c1nc(Cl)nc(N)c1OC showed a melting point of 158 °C.
Work on COc1cc(OCC2CCCO2)ccc1/C=C/c1cc(/C=C/c2ccc3cc[nH]c3c2)n[nH]1 (centres undefined) yielded a melting point of 218 to 220 °C.
For CCCCn1c(C)c(C)cc(Oc2nc3ccccc3o2)c1=O, the melting point was 106 to 108 °C.
With Nc1ccc(Oc2ccc(Oc3ccc(N)cc3)c(P(=O)(c3ccccc3)c3ccccc3)c2)cc1 the melting point was 205 to 208 °C.
Compound Cc1nc2c(C=O)cccn2c1C has a melting point of 145 to 148 °C.
Compound COc1ccc(-c2nc(Cl)c(Oc3ccccc3OC)c(Cl)n2)cc1 has a melting point of 113 to 114 °C.
In the case of CC12C=CCC1C1CCC3CC(O)CCC3C1CC2 (centres undefined), the melting point is reported as 113 to 115 °C.
COC(=O)C#Cc1c(C#N)nn(-c2c(Cl)cc(C(F)(F)F)cc2Cl)c1N gave a melting point of 201 to 202 °C.
O=C1N(c2ccc(Cl)cc2Cl)Cc2cnc(Nc3ccccc3)nc2N1c1cccc(CCN2CCOCC2)c1 gave a melting point of 118 °C.
With O=[N+]([O-])c1ccc(CCn2cccn2)cc1 the melting point was 92 to 93 °C.
In the case of COc1ccc2[nH]c(C(=NO)c3ccccc3)cc2c1, the melting point is reported as 150 to 152 °C.
Work on C/C(=C(\C#N)C(=S)/N=C/N(C)C)N1CCCN(c2ccc3c(c2)OCCO3)CC1 yielded a melting point of 127 to 129 °C.
Compound C[C@H](NC(=O)c1ccc[nH]1)C(=O)NC(C=O)CC(=O)O (some centres undefined) has a melting point of 96 to 100 °C.
In the case of CN(C)CCNc1ccc2c3c(nn2CCNC(=O)OC(C)(C)C)-c2cnccc2C(=O)c13, the melting point is reported as 225 to 227 °C.
For CN1C(=O)CC[C@]2(C)c3ccc(-c4ccc(F)cc4C(F)(F)F)cc3CC[C@@H]12, the melting point was 70 °C.
Compound Cc1cc(C)c2ncc(N(Cc3cc(C(C)(C)C)c(O)c(C(C)(C)C)c3)C(=O)Nc3ccc(F)cc3F)c(-c3ccccc3Cl)c2c1 has a melting point of 124 to 126 °C.
With COc1ccnc(-c2sccc2S(C)=O)c1 (centres undefined) the melting point was 103 to 105 °C.
For CCc1ccc(-c2[nH]nc3c2C(=O)c2c(NC(C)=O)cccc2-3)cc1, the melting point was 294 °C.
Nc1nc(Cl)nc2c1ncn2[C@@H]1S[C@H](CO)[C@@H](O)[C@H]1O showed a melting point of 220 to 222 °C.
With O=C(O)C=Cc1ccccc1NC(=O)c1ccc(OCCCCc2ccccc2)cc1 the melting point was 129 to 131 °C.
Compound CSC1C(=O)Nc2c(C(=O)c3ccc(Cl)cc3)cccc21 (centres undefined) has a melting point of 186 to 188 °C.
CC(C)(C#N)c1cc(-n2cncc2C=O)cc(C(C)(C)C#N)c1 gave a melting point of 108 to 111 °C.
In the case of Cc1cc(Br)cnc1CCCCNN1Cc2ccccc2S(=O)(=O)N1, the melting point is reported as 187 to 188 °C.
In the case of O=C(C[C@@H](CCCC1CCCCC1)c1nc(CN2CCOCC2)co1)NO, the melting point is reported as 117 to 119 °C.
With CC(C)(C)NC(=O)C(C)(C)N(OC(c1ccccc1)c1ccccc1)C(C)(C)C the melting point was 89 to 92 °C.
O=c1[nH]c2c3ccccc3c(=CO)c2n2ccnc12 gave a melting point of 290 °C.
CSc1ccc(CCN2CCN(C(=O)c3ccc(N(CCOC(C)C)C(=O)CCl)cc3)CC2)cc1 showed a melting point of 115 to 116 °C.
In the case of CCOc1ccc(C(Cl)=NOS(C)(=O)=O)cc1, the melting point is reported as 93 to 95.5 °C.
For CCn1c(=O)c2[nH]c(/C=C/c3ccc(OC)cc3OC)nc2n(CC)c1=O, the melting point was 279 to 280 °C.
For Cc1c(-c2cc(CO)c(Cl)cc2F)nn(C)c1C(F)(F)F, the melting point was 58 °C.
Compound O=C(O)C(O)c1ccccc1[N+](=O)[O-] (centres undefined) has a melting point of 137 to 139 °C.
Work on CCCCCC(C)N(CCCC)c1ccc(C2=C(C#N)C(=C(C#N)C#N)NC2=O)cc1 (centres undefined) yielded a melting point of 180 °C.
CCOc1cc(-c2cc(C(F)(F)F)n3ncc(-c4nc(-c5ccc(N)nc5)no4)c3n2)ccc1C(F)(F)F showed a melting point of 263 °C.
In the case of CCOc1nc(F)cc2nc(SSc3nc4cc(F)nc(OCC)n4n3)nn12, the melting point is reported as 215 to 216 °C.
For O=C(Nc1cccc2ccccc12)OCc1ccc(CO)cc1, the melting point was 158 to 159 °C.
OC(CCl)(c1ccccc1)c1ccccc1 gave a melting point of 56 to 57 °C.
In the case of CS(=O)(=O)c1ccc(-c2cnn(-c3ccc(F)c(F)c3)c(=O)c2OCCC2C=CCC2)cc1 (centres undefined), the melting point is reported as 126 to 127 °C.
For CC(C)(CO)Nc1cc(Cl)ccc1[N+](=O)[O-], the melting point was 102 to 104 °C.
Compound CCCn1c(=O)c2[nH]c(-c3cc(C)n(CC(=O)Nc4cccc5ccccc45)n3)nc2n(CCC)c1=O has a melting point greater than 300 °C.
For CC(C)(C)OC(=O)N1CCC(COc2ccc([N+](=O)[O-])cc2)CC1, the melting point was 130 to 131 °C.
Compound Nc1nc(Br)cn2c(Br)cnc12 has a melting point of 246 °C.
For CC1(C)C(=O)C(c2ccc(F)c(F)c2)=C1c1ccc(S(C)(=O)=O)cc1, the melting point was 118 °C.
For COC(=O)c1ccc(-c2oc3nc[nH]c(=O)c3c2C(=O)OCc2ccccc2)cc1, the melting point was 248 to 249 °C.
CCc1cc(C(C)=O)c(O)cc1OCCCCCCc1nnn[nH]1 gave a melting point of 126 to 127 °C.
With O=C(O)COCCCC1CCCN1c1cnc(-c2ccccc2)c(-c2ccccc2)n1 (centres undefined) the melting point was 137 to 139 °C.
COc1ccc(O)c(C(=O)N2CC(Oc3ccc(NC(=O)OC(C)(C)C)cc3)C2)c1 showed a melting point of 152 to 153 °C.
For O=c1[nH]c2ccccc2c(=O)c(Cc2ccccc2)c1O, the melting point was 199 to 200 °C.
With C[C@@H](C(N)=O)c1ccc(NS(=O)(=O)c2cccs2)cc1 the melting point was 58 to 60 °C.
CN1CCC(C2Oc3cc(F)ccc3Cn3cccc32)CC1 (centres undefined) showed a melting point of 115 to 120 °C.
